Assay results: patent US11149054B2, “Oxysterols and methods of use thereof” (Sage Therapeutics, Inc., priority 2016, dated 2021)
Like-named read-outs stand apart in the source and are kept apart here.

What was measured:
[1] = molecular target: GlunN1/GluN2A glutamate receptors (Homo sapiens (Human), UniProt Q05586+Q12879); assay: Whole-cell patch clamp of mammalian cells (Ionworks Barracuda), positive allosteric modulation, GluN1/GluN2A; format: cell-based
Method in brief: (§1)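 Perforated-patch whole-cell recording, holding −70 mV, −40 mV during application; Cs-based internal pH 7.2, external with 5 mM CaCl2 pH 7.4. Test article pre-applied alone 5 min, then co-applied with EC20 L-glutamate plus 30 μM glycine. EC50 from Hill fit of % activation over the EC20 current.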

[2] = molecular target: GluN2B glutamate receptors (Homo sapiens (Human), UniProt Q05586+Q13224); assay: Whole-cell patch clamp of mammalian cells (Ionworks Barracuda), positive allosteric modulation, GluN2B; format: cell-based; conditions: for Emax: read-out: Avg Emax 2B (%)
Chain of GluN2B glutamate receptors (Q13224 27-1484, other chains not shown): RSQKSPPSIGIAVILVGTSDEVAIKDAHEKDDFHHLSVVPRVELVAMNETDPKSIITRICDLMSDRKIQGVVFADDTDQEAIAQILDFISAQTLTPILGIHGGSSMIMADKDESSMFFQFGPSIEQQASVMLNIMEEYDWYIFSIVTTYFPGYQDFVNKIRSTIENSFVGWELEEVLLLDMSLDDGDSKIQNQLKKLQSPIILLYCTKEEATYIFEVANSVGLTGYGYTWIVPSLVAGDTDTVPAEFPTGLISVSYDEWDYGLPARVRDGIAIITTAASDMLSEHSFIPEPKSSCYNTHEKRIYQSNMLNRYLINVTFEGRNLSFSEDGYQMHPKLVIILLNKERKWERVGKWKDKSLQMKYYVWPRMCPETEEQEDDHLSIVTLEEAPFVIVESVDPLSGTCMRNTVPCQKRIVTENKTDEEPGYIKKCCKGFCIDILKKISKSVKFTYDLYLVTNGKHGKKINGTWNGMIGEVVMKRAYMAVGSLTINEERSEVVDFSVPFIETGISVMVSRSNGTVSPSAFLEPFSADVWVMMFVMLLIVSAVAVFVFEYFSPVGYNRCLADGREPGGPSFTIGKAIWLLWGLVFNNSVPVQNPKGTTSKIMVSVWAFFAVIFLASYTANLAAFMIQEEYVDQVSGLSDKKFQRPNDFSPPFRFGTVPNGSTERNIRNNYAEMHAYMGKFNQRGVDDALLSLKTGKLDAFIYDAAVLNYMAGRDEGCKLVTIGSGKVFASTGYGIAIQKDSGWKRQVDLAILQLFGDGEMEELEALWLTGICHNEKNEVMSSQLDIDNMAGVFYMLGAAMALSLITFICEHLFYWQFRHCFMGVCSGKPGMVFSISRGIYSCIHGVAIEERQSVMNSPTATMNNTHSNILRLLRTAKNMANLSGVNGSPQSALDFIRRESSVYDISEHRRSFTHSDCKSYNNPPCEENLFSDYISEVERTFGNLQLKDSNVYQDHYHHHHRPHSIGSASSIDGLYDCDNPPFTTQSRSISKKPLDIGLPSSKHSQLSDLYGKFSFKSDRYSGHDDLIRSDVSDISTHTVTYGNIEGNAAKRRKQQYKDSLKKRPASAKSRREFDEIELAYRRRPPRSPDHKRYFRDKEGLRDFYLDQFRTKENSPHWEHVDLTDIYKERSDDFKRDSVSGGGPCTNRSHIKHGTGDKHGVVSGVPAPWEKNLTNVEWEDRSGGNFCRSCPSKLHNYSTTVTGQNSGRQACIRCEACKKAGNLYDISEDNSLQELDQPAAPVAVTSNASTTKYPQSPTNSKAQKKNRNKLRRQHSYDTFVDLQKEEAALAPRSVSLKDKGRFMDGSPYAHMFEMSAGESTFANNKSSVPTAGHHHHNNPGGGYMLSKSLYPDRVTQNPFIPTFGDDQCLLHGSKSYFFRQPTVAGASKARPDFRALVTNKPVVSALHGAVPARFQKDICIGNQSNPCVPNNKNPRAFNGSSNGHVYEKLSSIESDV
Method in brief: as §1

[3] = HEK293 cells, % potentiation of current elicited with EC20 L-glutamate and 30 μM glycine, read-out: Avg Emax 2A (%)
[4] = % potentiation of current elicited with EC20 L-glutamate and 30 μM glycine
[5] = HEK293 cells, co-application with EC20 L-glutamate and 30 μM glycine, 8-point concentration-response, read-out: Avg EC50 2A
[6] = co-application with EC20 L-glutamate and 30 μM glycine, 8-point concentration-response, read-out: Avg EC50 2B
[7] = HEK293, read-out: Avg Emax 2A (%)

Chain of GlunN1/GluN2A glutamate receptors (Q12879 23-1464, other chains not shown): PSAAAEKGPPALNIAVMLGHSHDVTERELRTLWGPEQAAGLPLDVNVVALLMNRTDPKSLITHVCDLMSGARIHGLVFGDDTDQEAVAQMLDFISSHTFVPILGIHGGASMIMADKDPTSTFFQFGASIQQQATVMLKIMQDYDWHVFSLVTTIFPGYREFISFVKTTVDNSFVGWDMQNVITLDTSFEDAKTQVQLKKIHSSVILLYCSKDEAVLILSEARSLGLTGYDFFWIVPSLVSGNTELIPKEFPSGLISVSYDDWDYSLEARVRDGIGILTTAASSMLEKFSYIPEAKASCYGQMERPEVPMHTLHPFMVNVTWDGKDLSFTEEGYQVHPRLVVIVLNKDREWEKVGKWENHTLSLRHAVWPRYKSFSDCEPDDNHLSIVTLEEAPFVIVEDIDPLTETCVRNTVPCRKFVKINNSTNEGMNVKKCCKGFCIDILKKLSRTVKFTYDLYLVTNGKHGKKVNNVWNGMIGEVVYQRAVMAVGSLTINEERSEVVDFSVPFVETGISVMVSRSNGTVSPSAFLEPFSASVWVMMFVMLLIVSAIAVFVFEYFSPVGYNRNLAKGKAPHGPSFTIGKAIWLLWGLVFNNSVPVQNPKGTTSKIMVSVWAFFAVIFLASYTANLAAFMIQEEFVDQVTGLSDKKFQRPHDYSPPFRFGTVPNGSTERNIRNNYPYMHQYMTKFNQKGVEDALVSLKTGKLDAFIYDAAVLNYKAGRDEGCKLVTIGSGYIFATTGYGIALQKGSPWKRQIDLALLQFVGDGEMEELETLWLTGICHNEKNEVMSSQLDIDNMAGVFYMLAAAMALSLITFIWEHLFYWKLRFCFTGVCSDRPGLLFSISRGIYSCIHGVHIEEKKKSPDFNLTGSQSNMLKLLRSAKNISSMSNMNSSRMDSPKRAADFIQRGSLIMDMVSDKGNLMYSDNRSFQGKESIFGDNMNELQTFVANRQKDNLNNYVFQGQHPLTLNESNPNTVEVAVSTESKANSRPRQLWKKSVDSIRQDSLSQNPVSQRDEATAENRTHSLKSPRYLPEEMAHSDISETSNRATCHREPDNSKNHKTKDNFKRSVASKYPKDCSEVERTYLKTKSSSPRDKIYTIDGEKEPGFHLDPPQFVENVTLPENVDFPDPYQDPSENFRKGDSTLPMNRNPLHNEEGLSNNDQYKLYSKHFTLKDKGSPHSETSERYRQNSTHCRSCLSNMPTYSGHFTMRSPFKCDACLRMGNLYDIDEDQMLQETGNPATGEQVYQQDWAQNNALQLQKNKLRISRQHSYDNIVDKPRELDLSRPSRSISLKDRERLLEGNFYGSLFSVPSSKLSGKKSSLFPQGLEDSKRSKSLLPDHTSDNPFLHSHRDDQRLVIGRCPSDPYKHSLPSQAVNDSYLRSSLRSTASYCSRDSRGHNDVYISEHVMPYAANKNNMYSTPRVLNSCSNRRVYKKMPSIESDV

| SMILES | EC50 [1] [nM] | Emax [1, 3] [%] | EC50 [2] [nM] | Emax [2, 4] [%] | EC50 [1, 5] [nM] | EC50 [2, 6] [nM] | Emax [1, 7] [%] | Emax [2] [%] |
| --- | --- | --- | --- | --- | --- | --- | --- | --- |
| CC[C@]1(O)CC[C@@]2(C)C(=CC[C@H]3[C@@H]4CC[C@H]([C@H](C)CCC(O)Cc5ccccc5)[C@@]4(C)CC[C@@H]32)C1 (stereo partly shown) [Compound 6010] | 1100 | 239 | 1570 | 184 | – | – | – | – |
| CC[C@]1(O)CC[C@@]2(C)C(=CC[C@H]3[C@@H]4CC[C@H]([C@H](C)CC[C@H](O)Cc5ccccc5)[C@@]4(C)CC[C@@H]32)C1 [Compound 6051] | 500 | 293 | 1260 | 292 | – | – | – | – |
| CC[C@]1(O)CC[C@@]2(C)C(=CC[C@H]3[C@@H]4CC[C@H]([C@H](C)CC[C@@H](O)Cc5ccccc5)[C@@]4(C)CC[C@@H]32)C1 [Compound 6052] | 426 | 102 | 232 | 92.2 | – | – | – | – |
| CC[C@]1(O)CC[C@@]2(C)C(=CC[C@H]3[C@@H]4CC[C@H]([C@H](C)CC[C@H](O)c5ccccn5)[C@@]4(C)CC[C@@H]32)C1 [Compound 6347] | 268 | 64.7 | 311 | 132 | – | – | – | – |
| CC[C@]1(O)CC[C@@]2(C)C(=CC[C@H]3[C@@H]4CC[C@H]([C@H](C)CC[C@@H](O)c5ccccn5)[C@@]4(C)CC[C@@H]32)C1 [Compound 6348] | 260 | 79.7 | 663 | 133 | – | – | – | – |
| CC[C@]1(O)CC[C@@]2(C)C(=CC[C@H]3[C@@H]4CC[C@H]([C@H](C)CCC(O)c5ccccn5)[C@@]4(C)CC[C@@H]32)C1 (stereo partly shown) [Compound 6457] | 732 | 198 | 524 | 168 | – | – | – | – |
| CC[C@]1(O)CC[C@@]2(C)C(=CC[C@H]3[C@@H]4CC[C@H]([C@H](C)CC[C@H](O)c5cccnc5)[C@@]4(C)CC[C@@H]32)C1 [Compound 6458] | > 10000 | 30.9 | 929 | 79.4 | – | – | – | – |
| CC[C@]1(O)CC[C@@]2(C)C(=CC[C@H]3[C@@H]4CC[C@H]([C@H](C)CC[C@@H](O)c5cccnc5)[C@@]4(C)CC[C@@H]32)C1 [Compound 6459] | 1330 | 156 | 909 | 184 | – | – | – | – |
| CC[C@]1(O)CC[C@@]2(C)[C@@H](CC[C@@H]3[C@@H]2CC[C@]2(C)[C@@H]([C@H](C)CCC(O)c4ccccc4)CC[C@@H]32)C1 (stereo partly shown) [Compound 6544] | 559 | 253 | 498 | 415 | – | – | – | – |
| CC[C@]1(O)CC[C@@]2(C)[C@@H](CC[C@@H]3[C@@H]2CC[C@]2(C)[C@@H]([C@H](C)CC[C@@H](O)c4ccccc4)CC[C@@H]32)C1 [Compound 6571] | 190 | 158 | 267 | 241 | – | – | – | – |
| CC[C@]1(O)CC[C@@]2(C)[C@@H](CC[C@@H]3[C@@H]2CC[C@]2(C)[C@@H]([C@H](C)CC[C@H](O)c4ccccc4)CC[C@@H]32)C1 [Compound 6572] | 378 | 129 | 1340 | 251 | – | – | – | – |
| CC[C@]1(O)CC[C@@]2(C)[C@@H](CC[C@@H]3[C@@H]2CC[C@]2(C)[C@@H]([C@H](C)CC[C@H](O)c4cccnc4)CC[C@@H]32)C1 [Compound 6754] | – | 22.3 | – | 38.8 | > 10000 | > 10000 | – | – |
| CC[C@]1(O)CC[C@@]2(C)[C@@H](CC[C@@H]3[C@@H]2CC[C@]2(C)[C@@H]([C@H](C)CC[C@@H](O)c4cccnc4)CC[C@@H]32)C1 [Compound 6755] | > 10000 | 22.8 | > 10000 | 44.2 | – | – | – | – |
| CC[C@]1(O)CC[C@@]2(C)C(=CC[C@H]3[C@@H]4CC[C@H]([C@H](C)CC[C@H](O)c5cccc(F)c5)[C@@]4(C)CC[C@@H]32)C1 [Compound 6896] | 519 | 216 | 1680 | 402 | – | – | – | – |
| CC[C@]1(O)CC[C@@]2(C)C(=CC[C@H]3[C@@H]4CC[C@H]([C@H](C)CC[C@@H](O)c5cccc(C#N)c5)[C@@]4(C)CC[C@@H]32)C1 [Compound 6997] | 373 | 327 | 414 | 315 | – | – | – | – |
| CC[C@]1(O)CC[C@@]2(C)C(=CC[C@H]3[C@@H]4CC[C@H]([C@H](C)CC[C@H](O)c5cccc(C#N)c5)[C@@]4(C)CC[C@@H]32)C1 [Compound 6998] | – | 338 | – | 303 | 358 | 304 | – | – |
| CC[C@]1(O)CC[C@@]2(C)[C@@H](CC[C@@H]3[C@@H]2CC[C@]2(C)[C@@H]([C@H](C)CC[C@@H](O)c4ccccn4)CC[C@@H]32)C1 [Compound 7030] | – | 28.3 | – | 74.7 | – | – | – | – |
| CC[C@]1(O)CC[C@@]2(C)[C@@H](CC[C@@H]3[C@@H]2CC[C@]2(C)[C@@H]([C@H](C)CC[C@H](O)c4ccccn4)CC[C@@H]32)C1 [Compound 7032] | – | 28.3 | 874 | 63.8 | – | – | – | – |

| SMILES | EC50 [1] [nM] | Emax [1, 3] [%] | EC50 [2] [nM] | Emax [2, 4] [%] | EC50 [1, 5] [nM] | EC50 [2, 6] [nM] | Emax [1, 7] [%] | Emax [2] [%] |
| --- | --- | --- | --- | --- | --- | --- | --- | --- |
| CC[C@]1(O)CC[C@@]2(C)C(=CC[C@H]3[C@@H]4CC[C@H]([C@H](C)CC[C@@H](O)c5ccc(F)cc5)[C@@]4(C)CC[C@@H]32)C1 [Compound 7147] | – | – | 91.7 | – | – | – | 200 | 242 |
| CC[C@]1(O)CC[C@@]2(C)C(=CC[C@H]3[C@@H]4CC[C@H]([C@H](C)CC[C@@H](O)c5ccccc5F)[C@@]4(C)CC[C@@H]32)C1 [Compound 7282] | 95.9 | – | 174 | – | – | – | – | – |
| CC[C@]1(O)CC[C@@]2(C)C(=CC[C@H]3[C@@H]4CC[C@H]([C@H](C)CC[C@H](O)c5ccccc5C#N)[C@@]4(C)CC[C@@H]32)C1 [Compound 7300] | > 10000 | 37.5 | > 10000 | 46.9 | – | – | – | – |
| CC[C@]1(O)CC[C@@]2(C)C(=CC[C@H]3[C@@H]4CC[C@H]([C@H](C)CC[C@@H](O)c5ccccc5C#N)[C@@]4(C)CC[C@@H]32)C1 [Compound 7399] | 696 | 150 | 1580 | 180 | – | – | – | – |
| C[C@H](CC[C@](C)(O)c1ccccc1)[C@H]1CC[C@H]2[C@@H]3CC=C4C[C@@](C)(O)CC[C@]4(C)[C@H]3CC[C@]12C [Compound 7468] | – | – | – | – | – | – | 273 | 317 |
| CC[C@]1(O)CC[C@H]2[C@@H](CC[C@@H]3[C@@H]2CC[C@]2(C)[C@@H]([C@H](C)CCC4(O)CC4)CC[C@@H]32)C1 [Compound 8127] | 543 | 136 | 571 | 211 | – | – | – | – |
| CC[C@]1(O)CC[C@H]2C(=CC[C@@H]3[C@@H]2CC[C@]2(C)[C@@H]([C@H](C)CCC4(O)CC4)CC[C@@H]32)C1 [Compound 8245] | 525 | 73 | 268 | 120 | – | – | – | – |
| CC[C@]1(O)CC[C@H]2C(=CC[C@@H]3[C@@H]2CC[C@]2(C)[C@@H]([C@H](C)CCC(O)C(C)(C)C)CC[C@@H]32)C1 (stereo partly shown) [Compound 8361] | 87 | – | 136 | – | – | – | 252 | 309 |
| CC[C@]1(O)CC[C@H]2C(=CC[C@@H]3[C@@H]2CC[C@]2(C)[C@@H]([C@H](C)CC[C@H](O)C(C)(C)C)CC[C@@H]32)C1 [Compound 8378] | 124 | – | 208 | – | – | – | 195 | 259 |
| CC[C@]1(O)CC[C@H]2C(=CC[C@@H]3[C@@H]2CC[C@]2(C)[C@@H]([C@H](C)CC[C@@H](O)C(C)(C)C)CC[C@@H]32)C1 [Compound 8379] | 73.4 | – | 78.1 | – | – | – | 252 | 359 |
| CC[C@]1(O)CC[C@H]2C(=CC[C@@H]3[C@@H]2CC[C@]2(C)[C@@H]([C@H](C)CC[C@H](O)C(C)C)CC[C@@H]32)C1 [Compound 8462] | 170 | – | 96.2 | – | – | – | – | – |
| CC[C@]1(O)CC[C@H]2C(=CC[C@@H]3[C@@H]2CC[C@]2(C)[C@@H]([C@H](C)CC[C@@H](O)C(C)C)CC[C@@H]32)C1 [Compound 8463] | 102 | – | 85.1 | – | – | – | – | – |
| CCC(O)CC[C@@H](C)[C@H]1CC[C@H]2[C@@H]3CC=C4C[C@](O)(CC)CC[C@@H]4[C@H]3CC[C@]12C (stereo partly shown) [Compound 8564] | 469 | 252 | 489 | 310 | – | – | – | – |
| CC[C@@H](O)CC[C@@H](C)[C@H]1CC[C@H]2[C@@H]3CC=C4C[C@](O)(CC)CC[C@@H]4[C@H]3CC[C@]12C [Compound 8584] | 332 | 284 | 244 | 363 | – | – | – | – |
| CC[C@H](O)CC[C@@H](C)[C@H]1CC[C@H]2[C@@H]3CC=C4C[C@](O)(CC)CC[C@@H]4[C@H]3CC[C@]12C [Compound 8585] | 286 | 194 | 237 | 233 | – | – | – | – |
| CC[C@]1(O)CC[C@H]2C(=CC[C@@H]3[C@@H]2CC[C@]2(C)[C@@H]([C@H](C)CC[C@]4(O)CCOC4)CC[C@@H]32)C1 [Compound 8603] | 135 | – | 75.1 | – | – | – | – | – |
| CC[C@]1(O)CC[C@H]2C(=CC[C@@H]3[C@@H]2CC[C@]2(C)[C@@H]([C@H](C)CCC4(O)CCOC4)CC[C@@H]32)C1 (stereo partly shown) [Compound 8689] | 169 | – | 175 | – | – | – | – | – |
